Source: the NIST ThermoML archive (doi:10.1021/acs.jced.9b00415)
Numbers after ± are expanded uncertainties.

Settings: for viscosity / mass density: 102 kPa, Liquid; for viscosity: Concentric cylinders viscometry; for mass density: Vibrating tube method

CCCCn1cc[n+](C)c1.O=[N+]([O-])[O-] [1-butyl-3-methylimidazolium nitrate]
Settings	Triple point temperature [K]	mass density [kg/m3]	viscosity [mPa·s]
303.15 K	–	1151.9 ± 2.8	148.1 ± 15
308.15 K	–	1148.7 ± 2.8	112.9 ± 11
313.15 K	–	1145.5 ± 2.8	87.87 ± 8.9
318.15 K	–	1142.3 ± 2.8	69.65 ± 7
323.15 K	–	1139.2 ± 2.8	56.17 ± 5.7
328.15 K	–	1136.1 ± 2.8	45.97 ± 4.6
333.15 K	–	1133.1 ± 2.8	38.11 ± 3.8
338.15 K	–	1130 ± 2.7	32.05 ± 3.2
343.15 K	–	1127 ± 2.7	27.29 ± 2.8
348.15 K	–	1123.9 ± 2.7	23.4 ± 2.4
353.15 K	–	1120.9 ± 2.7	20.29 ± 2.1
358.15 K	–	1117.9 ± 2.7	17.73 ± 1.8
363.15 K	–	1115 ± 2.7	15.61 ± 1.6
Crystal 1, DSC	308 ± 6	–	–
Crystal 4, DSC	279 ± 6	–	–

CCCCn1cc[n+](C)c1.CS(=O)(=O)[O-] [1-butyl-3-methylimidazolium methanesulfonate]
Settings	mass density [kg/m3]	viscosity [mPa·s]
348.15 K	1139.4 ± 2.5	36.51 ± 3.7
353.15 K	1136.3 ± 2.5	30.57 ± 3.1
358.15 K	1133.1 ± 2.5	25.89 ± 2.6
363.15 K	1130 ± 2.5	22.16 ± 2.2

Settings	Triple point temperature [K]
Crystal, DSC	348 ± 6

CCCCn1cc[n+](C)c1.[Cl-] [1-butyl-3-methylimidazolium chloride]
Settings	mass density [kg/m3]	viscosity [mPa·s]
343.15 K	1057.5 ± 2.9	256.7 ± 26
348.15 K	1054.8 ± 2.9	189.4 ± 19
353.15 K	1052 ± 2.8	142.7 ± 15
358.15 K	1049.3 ± 2.8	109.6 ± 11
363.15 K	1046.5 ± 2.8	85.65 ± 8.7

DSC
Settings	Glass transition temperature [°C]	Triple point temperature [K]
Crystal	–	342 ± 6
Glass	-42 ± 6	–
